# According to patent publication US11453690B2, “Receptor inhibitor, pharmaceutical composition comprising same, and use thereof” (BEIJING TIDE PHARMACEUTICAL CO., LTD., priority 2018, dated 2022):
# Columns and labels:
# AT2 Receptor (AT2R) = AT2 Receptor (AT2R) (Homo sapiens (Human), UniProt P50052); assay: Measurement of inhibitory activity on AT2 receptor (Tag-lite HTRF, Tb-labeled AT2R cells, angiotensin receptor red agonist); assay type: binding; details: 1 h room temperature
# AT1 Receptor (AT1R) = AT1 Receptor (AT1R) (Homo sapiens (Human), UniProt P30556); assay: Measurement of inhibitory activity on AT1 receptor (Tag-lite HTRF, Tb-labeled AT1R cells, angiotensin receptor red agonist); assay type: binding; details: 1 h room temperature
# Description: Measurement of Inhibitory Activity on AT1 Receptor ([…])/AT2 Receptor (AT2R)
# Through the following steps, the inhibitory activity of the compound on AT1R/AT2R (IC50 value) was determined:
# 1) An appropriate amount of 1×TLB (Tag-lite Buffer) was prepared and well mixed for use.
# 2) The compound was diluted by 10 times with ddH2O or DMSO. The compound was then dilute to 4 times of the working concentration with 1×TLB and mixed well for use.
# 3) 8600 nM Tag-lite angiotensin receptor red agonist was diluted to 12 nM (4×Kd) with 1×TLB.
# 4) 5 ml 1×TLB was taken into a 15 ml centrifuge tube.
# 5) After thawing 1 tube of Tb-labeled AT1R/AT2R cells in a 37° C. water bath, the cells were quickly transferred to the 1×TLB in step 4), mixed gently, and centrifuged at 1200 g for 5 minutes at room temperature.
# 6) The supernatant was aspirated gently, and the cells were resuspended and mixed in 2.7 ml 1×TLB, and then placed at room temperature until use.
# 7) 10 μl cells were added to all test wells, and 5 μl 4× working solution of the compound from step 2) was added to the corresponding test wells. 5 μl 4× Tag-lite angiotensin receptor red agonist well diluted in step 3) was added to all test wells.
# 8) After leaving the reaction plate at room temperature for 1 h, data were measured and analyzed using Envision HTRF Reader, and the half inhibitory concentration (IC50) of the compound on AT1R/AT2R was calculated with the GraphPad Prism four-parameter equation.
# Chain of AT2 Receptor (AT2R) (P50052 whole entry): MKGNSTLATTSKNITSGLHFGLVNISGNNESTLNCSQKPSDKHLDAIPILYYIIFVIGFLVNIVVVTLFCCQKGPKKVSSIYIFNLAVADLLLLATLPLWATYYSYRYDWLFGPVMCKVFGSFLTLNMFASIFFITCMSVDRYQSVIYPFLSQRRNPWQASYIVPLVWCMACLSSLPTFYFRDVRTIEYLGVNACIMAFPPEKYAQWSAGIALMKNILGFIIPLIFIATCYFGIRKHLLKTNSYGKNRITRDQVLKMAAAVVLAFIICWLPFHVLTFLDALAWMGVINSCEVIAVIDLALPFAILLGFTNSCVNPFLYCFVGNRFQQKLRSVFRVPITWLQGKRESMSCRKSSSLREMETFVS
# Chain of AT1 Receptor (AT1R) (P30556 whole entry): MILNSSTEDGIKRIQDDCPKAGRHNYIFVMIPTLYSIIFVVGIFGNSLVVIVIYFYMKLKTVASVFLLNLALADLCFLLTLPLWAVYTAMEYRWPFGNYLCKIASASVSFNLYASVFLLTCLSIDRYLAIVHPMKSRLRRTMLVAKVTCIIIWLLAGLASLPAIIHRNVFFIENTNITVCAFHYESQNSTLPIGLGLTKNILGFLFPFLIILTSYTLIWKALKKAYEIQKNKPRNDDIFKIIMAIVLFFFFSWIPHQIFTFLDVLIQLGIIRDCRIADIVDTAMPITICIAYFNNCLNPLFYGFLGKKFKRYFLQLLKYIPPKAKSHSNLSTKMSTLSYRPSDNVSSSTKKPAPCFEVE
Structure (SMILES),IC50 (AT2 Receptor (AT2R)) [nM],IC50 (AT1 Receptor (AT1R)) [nM]
"O=C(O)[C@@H]1[C@H]2CC[C@@H](CN1C(=O)C(c1ccccc1)c1ccccc1)N2C(=O)OCc1ccccc1 [Compound C34, (1R,2S,5S)-8-((benzyloxy)carbonyl)-3-(2,2-diphenylacetyl)-3,8-diazabicyclo[3.2.1]octane-2-carboxylic acid]",35.2,> 10000
"O=C(O)[C@@H]1[C@H]2CC[C@@H](CN1C(=O)N(c1ccccc1)c1ccccc1)N2C(=O)C(c1ccccc1)c1ccccc1 [Compound C12, (1R,2S,5S)-8-(2,2-diphenylacetyl)-3-(diphenylcarbamoyl)-3,8-diazabicyclo [3.2.1]octane-2-carboxylic acid]",17.1,> 10000
"O=C(O)[C@@H]1[C@H]2CC[C@@H](CN1C(=O)N1c3ccccc3C=Cc3ccccc31)N2C(=O)C(c1ccccc1)c1ccccc1 [Compound C10, (1R,2S,5S)-3-(5H-dibenzo[b,f]azepine-5-carbonyl)-8-(2,2-diphenylacetyl)-3,8-diazabicyclo [3.2.1]octane-2-carboxylic acid]",58.8,> 10000
"CN(Cc1ccc(C#N)cc1)C(=O)N1[C@H]2CC[C@@H]1[C@H](C(=O)O)N(C(=O)N(c1ccccc1)c1ccccc1)C2 [Compound C167, (1R,2R,5S)-8-((4-cyanobenzyl) (methyl)carbamoyl)-3-(diphenylcarbamoyl)-3,8-diazabicyclo [3.2.1]octane-2-carboxylic acid]",18.9,> 10000
"CN(Cc1ccc(Cl)cc1)C(=O)N1[C@H]2CC[C@@H]1[C@@H](C(=O)O)N(C(=O)N(c1ccccc1)c1ccccc1)C2 [Compound C150, (1R,2S,5S)-8-((4-chlorobenzyl) (methyl)carbamoyl)-3-(diphenylcarbamoyl)-3,8-diazabicyclo [3.2.1]octane-2-carboxylic acid]",9.82,> 10000
"CN(Cc1ccccn1)C(=O)N1[C@H]2CC[C@@H]1[C@@H](C(=O)O)N(C(=O)C(c1ccccc1)c1ccccc1)C2 [Compound C123, (1R,2S,5S)-3-(2,2-diphenylacetyl)-8-(methyl(pyridine-2-ylmethyl)carbamoyl)-3,8-diazabicyclo [3.2.1]octane-2-carboxylic acid]",11.7,> 10000
"O=C(O)[C@@H]1[C@H]2CC[C@@H](CN1C(=O)C(c1ccccc1)c1ccccc1)N2C(=O)Nc1ccccc1 [Compound C83, (1R,2S,5S)-3-(2,2-diphenylacetyl)-8-(phenylcarbamoyl)-3,8-diazabicyclo [3.2.1]octane-2-carboxylic acid]",18.1,> 10000
"CN(Cc1ccccc1Cl)C(=O)N1[C@H]2CC[C@@H]1[C@@H](C(=O)O)N(C(=O)N(c1ccccc1)c1ccccc1)C2 [Compound C149, (1R,2S,5S)-8-((2-chlorobenzyl) (methyl)carbamoyl)-3-(diphenylcarbamoyl)-3,8-diazabicyclo [3.2.1]octane-2-carboxylic acid]",16.6,> 10000
"O=C(O)[C@@H]1[C@H]2CC[C@@H](CN1C(=O)C(c1ccccc1)c1ccccc1)N2C(=O)C(c1ccccc1)c1ccccc1 [Compound C1, (1R,2S,5S)-3,8-bis(2,2-diphenylacetyl)-3,8-diazabicyclo[3.2.1]octane-2-carboxylic acid]",6.67,> 10000
